Laboratory results from patent US20150190461A1, “DOSING INSTRUCTIONS FOR ENDOTOXIN-BINDING LIPOPEPTIDES” (priority 2012, published 2015).

Tests used:
[1] = human, in vivo; cited from earlier work
blood cells = test: Cytokine batch (batch test II): cytokine release by blood cells in LPS-spiked plasma; format: cell-based; settings: PMB 250, 500, 1000 ng/ml; plasma spiked with LPS (E. coli); 4 hours of incubation
Experimental: Also to be studied is to what extent this endotoxin elimination has the consequence of inhibiting the release of cytokines (batch test II).
A blood donation was taken in 9 blood-donation tubes (9 ml each) and spiked with 5 IU heparin. The plasma was centrifuges, and the cell pellet as incubated on the rolling mixer. The plasma was spiked with LPS and used for batch test I: […]

| Substance | serum half-life [1] [h] | inhibition of cytokine release (TNF-alpha, IL-1beta, IL-6, IL-8) by the blood cells (blood cells) | inhibition of the key mediator TNF-alpha (blood cells) |
| --- | --- | --- | --- |
| colistin | 6 to 7.4 | – | – |
| polymyxin B [PMB] | – | strong inhibition | especially pronounced |
